Measurements as given in patent US8022099B2, “N-benzyl pyrrolidine derivatives” (Hoffmann-La Roche Inc., priority 2008, dated 2011).

Target: T1, human NK3 receptor (Homo sapiens, UniProt P29371)
T1 construct: expressed in transfected cells; host or cells: HEK293 cells (transient expression), membrane preparation
T1 sequence (P29371 1-465): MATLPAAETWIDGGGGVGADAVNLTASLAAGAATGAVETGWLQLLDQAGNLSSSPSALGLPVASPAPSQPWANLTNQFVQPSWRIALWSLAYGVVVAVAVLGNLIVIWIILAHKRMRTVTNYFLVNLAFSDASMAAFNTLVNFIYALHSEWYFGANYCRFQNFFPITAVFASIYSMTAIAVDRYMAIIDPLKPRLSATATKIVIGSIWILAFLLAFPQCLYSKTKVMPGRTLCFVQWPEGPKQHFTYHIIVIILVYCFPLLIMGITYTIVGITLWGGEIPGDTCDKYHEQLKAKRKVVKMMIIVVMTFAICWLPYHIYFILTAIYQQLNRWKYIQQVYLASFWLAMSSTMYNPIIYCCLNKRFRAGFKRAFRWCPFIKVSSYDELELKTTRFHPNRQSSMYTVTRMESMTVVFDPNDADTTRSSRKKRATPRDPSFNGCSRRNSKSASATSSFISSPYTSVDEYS
Assay: [3H]SR142801 competition binding assay
Settings: hNK3 receptor binding, [3H]SR142801, membranes from HEK293 cells transiently expressing recombinant human NK3 receptor
Description: [^3H]SR142801 Competition Binding Assay
hNK3 receptor binding experiment were performed using [^3H]SR142801 (Catalog No. TRK1035, specific activity: 74.0 Ci/mmol, Amersham, GE Healthcare UK limited, Buckinghamshire, UK) and membrane isolated from HEK293 cells transiently expressing recombinant human NK3 receptor. After thawing, the membrane homogenates were centrifuged at 48,000×g for 10 min at 4° C., the pellets were resuspended in the 50 mM Tris-HCl, 4 mM MnCl2, 1 μM phosphoramidon, 0.1% BSA binding buffer at pH 7.4 to a final assay concentration of 5 μg protein/well. For inhibition experiments, membranes were incubated with [^3H]SR142801 at a concentration equal to KD value of radioligand and 10 concentrations of the inhibitory compound (0.0003-10 μM) (in a total reaction volume of 500 μl) for 75 min at room temperature (RT). At the end of the incubation, membranes were filtered onto unitfilter (96-well white microplate with bonded GF/C filter preincubated 1 h in 0.3% PEI+0.3% BSA, Packard BioScience, Meriden, Conn.) with a Filtermate 196 harvester (Packard BioScience) and washed 4 times with ice-cold 50 mM Tris-HCl, pH 7.4 buffer. Nonspecific binding was measured in the presence of 10 μM SB222200 for both radioligands. The radioactivity on the filter was counted (5 min) on a Packard Top-count microplate scintillation counter with quenching correction after addition of 45 μl of microscint 40 (Canberra Packard S. A., Zürich, Switzerland) and shaking for 1 h. Inhibition curves were fitted according to the Hill equation: y=100/(1+(x/IC50)^nH), where nH=slope factor using Excel-fit 4 software (Microsoft). IC50 values were derived from the inhibition curve and the affinity constant (Ki) values were calculated using the Cheng-Prussoff equation Ki=IC50/(1+[L]/KD) where [L] is the concentration of radioligand and KD is its dissociation constant at the receptor, derived from the saturation isotherm. All experiments were performed in duplicate and the mean±standard error (SEM) of the individual Ki values was calculated.

Ki [nM] | SMILES
13.4 | CN(Cc1ccc(C(F)(F)F)c(F)c1)[C@H]1CN(C(=O)N2CCN(c3ncccc3C#N)CC2)C[C@@H]1c1ccc(Cl)c(Cl)c1 [Example 71, 2-(4-{(3S,4R)-3-(3,4-Dichloro-phenyl)-4-[(3-fluoro-4-trifluoromethyl-benzyl)-methyl-amino]-pyrrolidine-1-carbonyl}-piperazin-1-yl)-nicotinonitrile]
97.6 | CNCCCCC(=O)N1C[C@H](c2ccc(Cl)c(Cl)c2)[C@@H](N(C)Cc2ccc(C(F)(F)F)c(F)c2)C1 (racemic) [Example 86, 1-{(3SR,4RS)-3-(3,4-Dichloro-phenyl)-4-[(3-fluoro-4-trifluoromethyl-benzyl)-methyl-amino]pyrrolidin-1-yl}-5-methylamino-pentan-1-one]
80.5 | CN(C)CCCN(C)CC(=O)N1C[C@H](c2ccc(Cl)c(Cl)c2)[C@@H](N(C)Cc2ccc(C(F)(F)F)c(F)c2)C1 (racemic) [Example 126, 1-{(3SR,4RS)-3-(3,4-Dichloro-phenyl)-4-[(3-fluoro-4-trifluoromethyl-benzyl)-methyl-amino]-pyrrolidin-1-yl}-2-[(3-dimethylamino-propyl)-methyl-amino]-ethanone]
78 | CN(Cc1ccc(-c2ccccc2)cc1)[C@H]1CN(C(=O)N2CCN(S(C)(=O)=O)CC2)C[C@@H]1c1ccc(Cl)cc1 (racemic) [Example 27, [(3RS,4SR)-3-(Biphenyl-4-ylmethyl-methyl-amino)-4-(4-chloro-phenyl)-pyrrolidin-1-yl]-(4-methanesulfonyl-piperazin-1-yl)-methanone]
8.8 | CC(=O)N1CCN(CC(=O)N2C[C@H](c3ccc(Cl)c(Cl)c3)[C@@H](N(C)Cc3ccc(C(F)(F)F)c(F)c3)C2)CC1 (racemic) [Example 138, 2-(4-Acetyl-piperazin-1-yl)-1-{(3SR,4RS)-3-(3,4-dichloro-phenyl)-4-[(3-fluoro-4-trifluoromethyl-benzyl)-methyl-amino]-pyrrolidin-1-yl}-ethanone]
11 | CN(Cc1ccc(C(F)(F)F)c(F)c1)[C@H]1CN(C(=O)CCCCN2CCOCC2)C[C@@H]1c1ccc(Cl)c(Cl)c1 (racemic) [Example 62, 1-{(3SR,4RS)-3-(3,4-Dichloro-phenyl)-4-[(3-fluoro-4-trifluoromethyl-benzyl)-methyl-amino]-pyrrolidin-1-yl}-5-morpholin-4-yl-pentan-1-one]
96.4 | CN(C)CCNCC(=O)N1C[C@H](c2ccc(Cl)c(Cl)c2)[C@@H](N(C)Cc2ccc(C(F)(F)F)c(F)c2)C1 (racemic) [Example 124, 1-{(3SR,4RS)-3-(3,4-Dichloro-phenyl)-4-[(3-fluoro-4-trifluoromethyl-benzyl)-methyl-amino]-pyrrolidin-1-yl}-2-(2-dimethylamino-ethylamino)-ethanone]
26.7 | CN(Cc1ccc(C(F)(F)F)c(F)c1)[C@H]1CN(C(=O)CCN2CCOCC2)C[C@@H]1c1ccc(Cl)c(Cl)c1 [Example 110, 1-{(3S,4R)-3-(3,4-Dichloro-phenyl)-4-[(3-fluoro-4-trifluoromethyl-benzyl)-methyl-amino]-pyrrolidin-1-yl}-3-morpholin-4-yl-propan-1-one]
70.8 | CN(Cc1ccc(C(F)(F)F)c(F)c1)[C@H]1CN(C(=O)CCCCC#N)C[C@@H]1c1ccc(Cl)c(Cl)c1 (racemic) [Example 102, 6-{(3SR,4RS)-3-(3,4-Dichloro-phenyl)-4-[(3-fluoro-4-trifluoromethyl-benzyl)-methyl-amino]-pyrrolidin-1-yl}-6-oxo-hexanenitrile]
76.2 | CN(Cc1ccc2c(c1)OCC2)[C@H]1CN(C(=O)N2CCN(S(C)(=O)=O)CC2)C[C@@H]1c1ccc(Cl)c(Cl)c1 (racemic) [Example 37, {(3SR,4RS)-3-(3,4-Dichloro-phenyl)-4-[(2,3-dihydro-benzofuran-6-ylmethyl)-methyl-amino]-pyrrolidin-1-yl}-(4-methanesulfonyl-piperazin-1-yl)-methanone]
69.1 | CN(Cc1ccc2cc[nH]c2c1)[C@H]1CN(C(=O)N2CCN(S(C)(=O)=O)CC2)C[C@@H]1c1ccc(Cl)c(Cl)c1 (racemic) [Example 47, {(3SR,4RS)-3-(3,4-Dichloro-phenyl)-4-[(1H-indol-6-ylmethyl)-methyl-amino]-pyrrolidin-1-yl}-(4-methanesulfonyl-piperazin-1-yl)-methanone]
69.9 | CN(Cc1ccc(Cl)c(F)c1)[C@H]1CN(C(=O)N2CCN(S(C)(=O)=O)CC2)C[C@@H]1c1ccc(Cl)cc1 (racemic) [Example 29, [(3RS,4SR)-3-[(4-Chloro-3-fluoro-benzyl)-methyl-amino]-4-(4-chloro-phenyl)-pyrrolidin-1-yl]-(4-methanesulfonyl-piperazin-1-yl)-methanone]
39.7 | CN(Cc1ccc(C(F)(F)F)c(F)c1)[C@H]1CN(C(=O)N2CCCN(S(C)(=O)=O)CC2)C[C@@H]1c1ccc(Cl)c(F)c1 (racemic) [Example 82, {(3SR,4RS)-3-(4-Chloro-3-fluoro-phenyl)-4-[(3-fluoro-4-trifluoromethyl-benzyl)-methyl-amino]-pyrrolidin-1-yl}-(4-methanesulfonyl-[1,4]diazepan-1-yl)-methanone]
1.9 | CN(Cc1ccc(C(F)(F)F)c(F)c1)[C@H]1CN(C(=O)N2CCN(c3ccc(C#N)cn3)CC2)C[C@@H]1c1ccc(Cl)c(Cl)c1 (racemic) [Example 73, 6-(4-{(3SR,4RS)-3-(3,4-Dichloro-phenyl)-4-[(3-fluoro-4-trifluoromethyl-benzyl)-methyl-amino]-pyrrolidine-1-carbonyl}-piperazin-1-yl)-nicotinonitrile]
25.1 | CN(Cc1ccc(C(F)(F)F)c(F)c1)[C@H]1CN(C(=O)CN2C[C@@H]3C[C@@H]2CO3)C[C@@H]1c1ccc(Cl)c(Cl)c1 (mixture of isomers) [Example 148, 1-{(3SR,4RS)-3-(3,4-Dichloro-phenyl)-4-[(3-fluoro-4-trifluoromethyl-benzyl)-methyl-amino]-pyrrolidin-1-yl}-2-(1S,4R)-2-oxa-5-aza-bicyclo[2.2.1]hept-5-yl-ethanone]
23.2 | CC(=O)N[C@H]1CCN(CC(=O)N2C[C@H](c3ccc(Cl)c(Cl)c3)[C@@H](N(C)Cc3ccc(C(F)(F)F)c(F)c3)C2)C1 (mixture of isomers) [Example 133, N-[(S)-1-(2-{(3SR,4RS)-3-(3,4-Dichloro-phenyl)-4-[(3-fluoro-4-trifluoromethyl-benzyl)-methyl-amino]-pyrrolidin-1-yl}-2-oxo-ethyl)-pyrrolidin-3-yl]-acetamide]
5.4 | CN(C)CCCN1CCN(C(=O)N2C[C@H](c3ccc(Cl)c(Cl)c3)[C@@H](N(C)Cc3ccc(C(F)(F)F)c(F)c3)C2)CC1 (racemic) [Example 74, {(3SR,4RS)-3-(3,4-Dichloro-phenyl)-4-[(3-fluoro-4-trifluoromethyl-benzyl)-methyl-amino]-pyrrolidin-1-yl}-[4-(3-dimethylamino-propyl)-piperazin-1-yl]-methanone]
80.7 | CN(Cc1ccc(Cl)c(Cl)c1)[C@H]1CN(C(=O)N2CCN(S(C)(=O)=O)CC2)C[C@@H]1c1ccc(Cl)cc1 (racemic) [Example 19, {(3SR,4RS)-3-(4-Chloro-phenyl)-4-[(3,4-dichloro-benzyl)-methyl-amino]-pyrrolidin-1-yl}-(4-methanesulfonyl-piperazin-1-yl)-methanone]
